Assays:
Type in all cases: in vivo
[1] = system: barnyardgrass (Echinochloa crus-galli); assay: Test A greenhouse herbicide test, pre- and postemergence
Description: (§1) Seeds of plant species selected from barnyardgrass (Echinochloa crus-galli), kochia (Kochia scoparia), ragweed (common ragweed, Ambrosia elatior), ryegrass, Italian (Italian ryegrass, Lolium multiflorum), crabgrass, large (large crabgrass, Digitaria sanguinalis), foxtail, giant (giant foxtail, Setaria faberii), momingglory (Ipomoea spp.), pigweed (Amaranthus retroflexus), velvetleaf (Abutilon theophrasti), wheat (Triticum aestivum), and corn (Zea mays) were planted into a blend of loam soil and sand and treated preemergence with a directed soil spray using test chemicals formulated in a non-phytotoxic solvent mixture which included a surfactant.
(§2) At the same time, plants selected from these crop and weed species and also blackgrass (Alopecurus myosuroides), and galium (catchweed bedstraw, Galium aparine) were planted in pots containing the same blend of loam soil and sand and treated with postemergence applications of test chemicals formulated in the same manner. Plants ranged in height from 2 to 10 cm and were in the one- to two-leaf stage for the postemergence treatment. Treated plants and untreated controls were maintained in a greenhouse for approximately 10 d, after which time all treated plants were compared to untreated controls and visually evaluated for injury. Plant response ratings, summarized in Table A, are based on a 0 to 100 scale where 0 is no effect and 100 is complete control. A dash (-) response means no test result.

[2] = system: corn (Zea mays); assay: as above; settings: Postemergence; for Plant response rating, Corn: 125 g ai/ha, 0 to 100 scale where 0 is no effect and 100 is complete control; for Corn plant response rating: 500 g ai/ha, 0 to 100 scale, 0 is no effect, 100 is complete control
Description: as §1, §2

[3] = system: foxtail, giant (giant foxtail, Setaria faberii); assay: as above
Description: as §1, §2

[4] = system: kochia (Kochia scoparia); assay: as above
Description: as §1, §2

[5] = system: pigweed (Amaranthus retroflexus); assay: as above
Description: as §1, §2

[6] = system: ragweed (common ragweed, Ambrosia elatior); assay: as above
Description: as §1, §2

[7] = system: ryegrass, Italian (Italian ryegrass, Lolium multiflorum); assay: as above
Description: as §1, §2

[8] = system: wheat (Triticum aestivum); assay: as above; settings: Postemergence; for Plant response rating, Wheat: 125 g ai/ha, 0 to 100 scale where 0 is no effect and 100 is complete control; for Wheat plant response rating: 500 g ai/ha, 0 to 100 scale, 0 is no effect, 100 is complete control
Description: as §1, §2

[9] = system: blackgrass (Alopecurus myosuroides); assay: Test A greenhouse herbicide test, postemergence; settings: for Plant response rating, Blackgrass: 125 g ai/ha, 0 to 100 scale where 0 is no effect and 100 is complete control; for Blackgrass plant response rating: 500 g ai/ha, 0 to 100 scale, 0 is no effect, 100 is complete control
How it was run: (§3)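 Greenhouse postemergence test: formulated chemicals sprayed on one- to two-leaf plants (2 to 10 cm), grown in loam soil blended with sand. Injury assessed visually about 10 d later against untreated controls, scored 0 (no effect) to 100 (complete control).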

[10] = system: galium (catchweed bedstraw, Galium aparine); assay: Test A greenhouse herbicide test, postemergence; settings: for Plant response rating, Galium: 125 g ai/ha, 0 to 100 scale where 0 is no effect and 100 is complete control; for Galium plant response rating: 500 g ai/ha, 0 to 100 scale, 0 is no effect, 100 is complete control
How it was run: as §3

[11] = system: barnyardgrass (Echinochloa crus-galli); assay: Test B flooded paddy test; settings: 250 g ai/ha, Flood; visual rating on scale of 0 to 100 where 0 is no effect and 100 is complete control; 13 to 15 d after treatment
Method: (§4) Plant species in the flooded paddy test selected from rice (Oryza sativa), sedge, umbrella (small-flower umbrella sedge, Cyperus difformis), ducksalad (Heteranthera limosa), and barnyardgrass (Echinochloa crus-galli) were grown to the 2-leaf stage for testing. At time of treatment, test pots were flooded to 3 cm above the soil surface, treated by application of test compounds directly to the paddy water, and then maintained at that water depth for the duration of the test. Treated plants and controls were maintained in a greenhouse for 13 to 15 d, after which time all species were compared to controls and visually evaluated. Plant response ratings, summarized in Table B, are based on a scale of 0 to 100 where 0 is no effect and 100 is complete control. A dash (-) response means no test result.

[12] = system: ducksalad (Heteranthera limosa); assay: Test B flooded paddy test; settings: 250 g ai/ha, Flood; visual rating on scale of 0 to 100 where 0 is no effect and 100 is complete control; 13 to 15 d after treatment
Method: as §4

[13] = system: rice (Oryza sativa); assay: Test B flooded paddy test; settings: 250 g ai/ha, Flood; visual rating on scale of 0 to 100 where 0 is no effect and 100 is complete control; 13 to 15 d after treatment
Method: as §4

[14] = system: sedge, umbrella (small-flower umbrella sedge, Cyperus difformis); assay: Test B flooded paddy test; settings: 250 g ai/ha, Flood; visual rating on scale of 0 to 100 where 0 is no effect and 100 is complete control; 13 to 15 d after treatment
Method: as §4

[15] = Postemergence, 125 g ai/ha, 0 to 100 scale where 0 is no effect and 100 is complete control
[16] = Postemergence, 500 g ai/ha, 0 to 100 scale, 0 is no effect, 100 is complete control
[17] = Preemergence, 125 g ai/ha, 0 to 100 scale where 0 is no effect and 100 is complete control
[18] = Preemergence, 500 g ai/ha, 0 to 100 scale, 0 no effect, 100 complete control

Cc1sc2ccccc2c1-c1c(O)cnn(C)c1=O [Compound 48]
Plant response rating, Barnyardgrass [1, 15]: 10
Barnyardgrass plant response rating [1, 16]: 50
Barnyardgrass plant response rating [1, 17]: 0
Plant response rating, Barnyardgrass [1, 18]: 0
Plant response rating, Corn [2]: 0
Corn plant response rating [2]: 0
Plant response rating, Foxtail, Giant [3, 15]: 50
Foxtail, Giant plant response rating [3, 16]: 60
Foxtail, Giant plant response rating [3, 17]: 0
Plant response rating, Foxtail, Giant [3, 18]: 10
Plant response rating, Kochia [4, 15]: 70
Kochia plant response rating [4, 16]: 80
Kochia plant response rating [4, 17]: 0
Plant response rating, Kochia [4, 18]: 10
Plant response rating, Pigweed [5, 15]: 60
Pigweed plant response rating [5, 16]: 70
Pigweed plant response rating [5, 17]: 30
Plant response rating, Pigweed [5, 18]: 30
Plant response rating, Ragweed [6, 15]: 0
Ragweed plant response rating [6, 16]: 20
Ragweed plant response rating [6, 17]: 10
Plant response rating, Ragweed [6, 18]: 60
Plant response rating, Ryegrass, Italian [7, 15]: 50
Ryegrass, Italian plant response rating [7, 16]: 60
Ryegrass, Italian plant response rating [7, 17]: 20
Plant response rating, Ryegrass, Italian [7, 18]: 60
Plant response rating, Wheat [8]: 0
Wheat plant response rating [8]: 0
Plant response rating, Blackgrass [9]: 0
Blackgrass plant response rating [9]: 30
Plant response rating, Galium [10]: 90
Galium plant response rating [10]: 90
Plant response rating, Barnyardgrass [11]: 0
Plant response rating, Ducksalad [12]: 0
Plant response rating, Rice [13]: 0
Plant response rating, Sedge, Umbrella [14]: 0

Cn1ncc(O)c(-c2cccc3ccccc23)c1=O [Compound 49]
Plant response rating, Barnyardgrass [1, 15]: 0
Barnyardgrass plant response rating [1, 16]: 20
Barnyardgrass plant response rating [1, 17]: 0
Plant response rating, Barnyardgrass [1, 18]: 0
Plant response rating, Corn [2]: 0
Corn plant response rating [2]: 0
Plant response rating, Foxtail, Giant [3, 15]: 0
Foxtail, Giant plant response rating [3, 16]: 20
Foxtail, Giant plant response rating [3, 17]: 0
Plant response rating, Foxtail, Giant [3, 18]: 10
Plant response rating, Kochia [4, 15]: 0
Kochia plant response rating [4, 16]: 10
Kochia plant response rating [4, 17]: 0
Plant response rating, Kochia [4, 18]: 0
Plant response rating, Pigweed [5, 15]: 20
Pigweed plant response rating [5, 16]: 40
Pigweed plant response rating [5, 17]: 0
Plant response rating, Pigweed [5, 18]: 40
Plant response rating, Ragweed [6, 15]: 0
Ragweed plant response rating [6, 16]: 10
Ragweed plant response rating [6, 17]: 0
Plant response rating, Ragweed [6, 18]: 10
Plant response rating, Ryegrass, Italian [7, 15]: 30
Ryegrass, Italian plant response rating [7, 16]: 50
Ryegrass, Italian plant response rating [7, 17]: 0
Plant response rating, Ryegrass, Italian [7, 18]: 30
Plant response rating, Wheat [8]: 0
Wheat plant response rating [8]: 0
Plant response rating, Blackgrass [9]: 10
Blackgrass plant response rating [9]: 30
Plant response rating, Galium [10]: 50
Galium plant response rating [10]: 80
Plant response rating, Barnyardgrass [11]: 0
Plant response rating, Ducksalad [12]: 0
Plant response rating, Rice [13]: 0
Plant response rating, Sedge, Umbrella [14]: 0

COc1ccc2sc(C)c(-c3c(O)c(C)nn(C)c3=O)c2c1 [Compound 53]
Plant response rating, Barnyardgrass [1, 15]: 0
Barnyardgrass plant response rating [1, 16]: 20
Barnyardgrass plant response rating [1, 17]: 0
Plant response rating, Barnyardgrass [1, 18]: 20
Plant response rating, Corn [2]: 0
Corn plant response rating [2]: 0
Plant response rating, Foxtail, Giant [3, 15]: 0
Foxtail, Giant plant response rating [3, 16]: 30
Foxtail, Giant plant response rating [3, 17]: 50
Plant response rating, Foxtail, Giant [3, 18]: 50
Plant response rating, Kochia [4, 15]: 70
Kochia plant response rating [4, 16]: 80
Kochia plant response rating [4, 17]: 50
Plant response rating, Kochia [4, 18]: 70
Plant response rating, Pigweed [5, 15]: 60
Pigweed plant response rating [5, 16]: 70
Pigweed plant response rating [5, 17]: 50
Plant response rating, Pigweed [5, 18]: 70
Plant response rating, Ragweed [6, 15]: 60
Ragweed plant response rating [6, 16]: 70
Ragweed plant response rating [6, 17]: 0
Plant response rating, Ragweed [6, 18]: 50
Plant response rating, Ryegrass, Italian [7, 15]: 40
Ryegrass, Italian plant response rating [7, 16]: 70
Ryegrass, Italian plant response rating [7, 17]: 10
Plant response rating, Ryegrass, Italian [7, 18]: 50
Plant response rating, Wheat [8]: 0
Wheat plant response rating [8]: 20
Plant response rating, Blackgrass [9]: 0
Blackgrass plant response rating [9]: 30
Plant response rating, Galium [10]: 60
Galium plant response rating [10]: 80
Plant response rating, Barnyardgrass [11]: 0
Plant response rating, Ducksalad [12]: 0
Plant response rating, Rice [13]: 0
Plant response rating, Sedge, Umbrella [14]: 0
